The values that follow come from patent US20160214956A1, “NOVEL SOLUBLE GUANYLATE CYCLASE ACTIVATORS AND THEIR USE” (GLAXOSMITHKLINE INTELLECTUAL PROPERTY DEVELOPMENT LIMITED, priority 2013, published 2016).

Changes are numbered by the printed parent chain. Structures can show the parent of a compound that is named as a salt.

The first experiment addresses T1, human sGC (Homo sapiens, UniProt Q02153).
T1 sequence (Q02153 1-619): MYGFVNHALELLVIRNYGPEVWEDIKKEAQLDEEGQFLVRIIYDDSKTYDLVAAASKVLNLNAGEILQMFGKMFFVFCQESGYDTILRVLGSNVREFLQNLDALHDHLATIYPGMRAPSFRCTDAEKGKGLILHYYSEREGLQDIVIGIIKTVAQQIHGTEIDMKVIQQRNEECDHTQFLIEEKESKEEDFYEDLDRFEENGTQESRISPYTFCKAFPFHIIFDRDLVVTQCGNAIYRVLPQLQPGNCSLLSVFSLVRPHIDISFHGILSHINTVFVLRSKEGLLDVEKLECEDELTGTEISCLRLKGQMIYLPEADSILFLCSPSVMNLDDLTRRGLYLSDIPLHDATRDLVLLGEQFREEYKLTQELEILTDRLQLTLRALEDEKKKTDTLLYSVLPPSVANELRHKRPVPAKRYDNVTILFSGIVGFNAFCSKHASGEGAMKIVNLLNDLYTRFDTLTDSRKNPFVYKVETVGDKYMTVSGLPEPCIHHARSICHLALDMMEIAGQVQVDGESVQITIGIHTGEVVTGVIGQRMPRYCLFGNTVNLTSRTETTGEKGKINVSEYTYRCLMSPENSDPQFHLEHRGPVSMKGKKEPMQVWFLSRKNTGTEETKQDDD
T1 sequence (Q02108 1-690 partner): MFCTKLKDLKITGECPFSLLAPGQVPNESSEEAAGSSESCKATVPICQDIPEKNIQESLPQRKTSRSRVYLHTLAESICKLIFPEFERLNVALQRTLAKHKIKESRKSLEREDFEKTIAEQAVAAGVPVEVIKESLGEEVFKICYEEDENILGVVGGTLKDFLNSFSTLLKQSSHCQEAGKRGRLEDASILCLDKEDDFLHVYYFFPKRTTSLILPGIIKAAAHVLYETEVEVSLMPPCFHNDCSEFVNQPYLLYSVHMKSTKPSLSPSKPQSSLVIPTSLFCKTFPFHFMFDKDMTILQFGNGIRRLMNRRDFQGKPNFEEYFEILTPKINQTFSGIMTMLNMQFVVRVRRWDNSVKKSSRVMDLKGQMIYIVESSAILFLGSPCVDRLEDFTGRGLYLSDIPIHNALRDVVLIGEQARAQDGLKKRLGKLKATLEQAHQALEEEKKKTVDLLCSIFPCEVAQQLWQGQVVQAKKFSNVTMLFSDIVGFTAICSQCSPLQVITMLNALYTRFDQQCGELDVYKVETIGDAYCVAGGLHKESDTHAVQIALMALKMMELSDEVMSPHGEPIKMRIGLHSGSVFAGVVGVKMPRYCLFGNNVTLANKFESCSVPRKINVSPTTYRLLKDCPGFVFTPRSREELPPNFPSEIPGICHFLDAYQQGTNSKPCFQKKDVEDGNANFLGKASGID
The experiment is described as follows: sGC enzyme assay, fluorescence polarisation of labelled cGMP. The class given is biochemical. The settings on record: human sGC 1 nM, FP assay; concentration able to increase by 5-fold basal cGMP. Here is the method: The activity of soluble guanylate cyclase (sGC) was tested in an assay based on measuring the fluorescent polarisation (FP) signal of fluorescently labelled cGMP. FP increased on interaction with an anti-cGMP antibody as the motility of the molecule was reduced. Newly produced cGMP displaced the interaction giving rise to a decrease in polarisation and FP signal which was equated to enzyme activity. Compounds were incubated with human sGC, anti-cGMP antibody, the GTP substrate and fluorescently labelled cGMP. After a period of one hour the assay was stopped with the addition of EDTA and after a further hour the assay was read.
Human sGC was thawed and resuspended in assay buffer (100 mM TRIS, 10 mM MgCl2, 0.2 mM Tween 20, pH7.4, containing 1:100 dilution of sheep anti-cGMP) to give final concentration of 1 nM in the well. A substrate solution was prepared containing GTP and 8-fluo-cGMP in de-ionized water to a final concentration of 25 μM and 50 nM respectively. Assay plates containing 5 μL of various test compounds and of a standard agonist (50 μM-50 nM) in 1% DMSO as 6 point, four fold dilutions across a 96 well plate were used in the assay. The plate also contained 6 wells of DMSO (1%) to produce high control and a cGMP standard curve (14 nM to 10 μM) to convert FP data to cGMP concentration. 25 μL of enzyme mix and 20 μl of substrate mix described above were added to each well of the plate. Samples were mixed on an orbital shaker and then incubated at room temperature for 1 hour. After this incubation period 5 μl of 0.5M EDTA was added to all wells and the plates were incubated for a further hour at room temperature prior to reading the FP signal in an appropriate reader. For data handling FP data were converted to cGMP concentrations and then fitted using ActivityBase software. The activity of a test compound was determined as the pEC500 value which is the concentration able to increase by 5-fold basal cGMP.
A general note: In fluorescence polarisation assays a small probe gives low polarisation when free and higher when bound to something large.
On to `O=C(O)c1cnn(-c2cccc(-c3ccccc3CCc3ccc(OCCCN4CCOCC4)cc3)n2)c1C(F)(F)F` [Example 2, 1-(6-(2-(4-(3-morpholinopropoxy)phenethyl)phenyl)pyridin-2-yl)-5-(trifluoromethyl)-1H-pyrazole-4-carboxylic acid], for which the “sGC pEC500” value is recorded as 6.19.

The next experiment concerns the target T2, soluble guanylate cyclase (sGC) (Rattus norvegicus, UniProt P20595).
T2 construct: endogenous in cells; host or cells: primary rat aortic smooth muscle cells
T2 sequence (P20595 1-619): T1 sequence (Q02153 1-619) with N171S, E205D, N247K, T299A, K615N, D618E, D619N
T2 sequence (P19686 1-690 partner): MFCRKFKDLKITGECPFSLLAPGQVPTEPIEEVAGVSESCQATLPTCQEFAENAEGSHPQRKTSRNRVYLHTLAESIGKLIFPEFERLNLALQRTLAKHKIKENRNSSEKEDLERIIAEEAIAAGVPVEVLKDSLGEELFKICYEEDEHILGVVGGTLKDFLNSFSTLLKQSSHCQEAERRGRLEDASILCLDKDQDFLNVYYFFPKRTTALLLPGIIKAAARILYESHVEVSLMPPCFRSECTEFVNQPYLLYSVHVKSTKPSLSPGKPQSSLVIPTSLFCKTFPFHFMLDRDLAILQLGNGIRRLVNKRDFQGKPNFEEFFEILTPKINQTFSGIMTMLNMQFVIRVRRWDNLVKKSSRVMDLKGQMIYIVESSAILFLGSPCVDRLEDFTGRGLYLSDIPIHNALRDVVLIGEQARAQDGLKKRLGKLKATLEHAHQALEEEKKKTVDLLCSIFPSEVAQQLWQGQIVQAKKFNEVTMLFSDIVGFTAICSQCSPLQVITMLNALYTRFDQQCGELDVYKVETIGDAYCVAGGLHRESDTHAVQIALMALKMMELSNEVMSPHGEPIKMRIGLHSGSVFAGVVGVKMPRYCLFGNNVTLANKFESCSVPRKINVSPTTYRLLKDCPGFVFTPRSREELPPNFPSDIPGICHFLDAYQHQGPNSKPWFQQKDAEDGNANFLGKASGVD
The experiment is described as follows: Cellular assay, VASP phosphorylation in rat aortic smooth muscle cells with ODQ. The note with it: phospho-VASP signal, primary rat aortic smooth muscle cells, 10 μM ODQ, 30 min incubation; 50% vs. Bmax; read-out: Cell assay pEC50 (converted). It is filed as cell-based. As to the method: The activity of soluble guanylate cyclase (sGC) was tested in an assay based on measuring phosphorylation of the protein kinase G (PKG) substrate vasodilator-stimulated phosphoprotein (VASP) in rat aortic smooth muscle cells. […] Dimethylsulfoxide (DMSO) vehicle and varying concentrations of the compound to be tested were then added. Following a 30 min incubation at 37° C., media was aspirated and the cells were rinsed with phosphate-buffered saline (PBS) and fixed with 4% formaldehyde in PBS by incubating at room temperature for 20 min. Cells were then washed with PBS and permeabilized for 10 min using 0.1% triton X-100 in PBS. Following PBS rinsing, the cells were blocked for 90 min at room temperature with blocking buffer. The buffer was aspirated and the cells were treated overnight at 4° C. with primary antibody (pSer239-VASP, rabbit polyclonal Ab) diluted 1:500 in blocking buffer. Following three washes with 0.05% Tween 20, the cells were treated for 1 h at room temperature with a fluorescent labeled secondary antibody (IRDye® 800CW Donkey Anti-Rabbit IgG) diluted 1:2500 in blocking buffer with 0.05% Tween 20. Following two washes with PBS, infrared fluorescence was measured using an Odyssey Infrared Imaging System. The activity of a test compound was determined as the pEC50 value which is the concentration able to increase by 50% (vs. Bmax) the phospho-VASP fluorescent signal. Front. Pharmacol., 5 Jul. 2012|doi: 10.3389/fphar.2012.00128, Volume 3 July, 2012, Article number 128.
Consider `Cc1cc(OCCCC(F)(F)F)ccc1CCc1ccc(F)cc1-c1cccc(-n2ncc(C(=O)O)c2C(F)(F)F)n1` [Example 13, 1-(6-(5-Fluoro-2-(2-methyl-4-(4,4,4-trifluorobutoxy)phenethyl)phenyl)pyridin-2-yl)-5-(trifluoromethyl)-1H-pyrazole-4-carboxylic acid], for which the EC50 was 1.26 nM.
Still for that read-out and setting: to `Cc1cc(OCCCn2cccn2)ccc1CCc1ccc(F)cc1-c1cccc(-n2ncc(C(=O)O)c2C(F)(F)F)n1` [Example 14, 1-(6-(2-(4-(3-(1H-pyrazol-1-yl)propoxy)-2-methylphenethyl)-5-fluorophenyl)pyridin-2-yl)-5-(trifluoromethyl)-1H-pyrazole-4-carboxylic acid] belongs 1.58 nM; to `Cc1cc(OCCCn2cc(C#N)cn2)ccc1CCc1ccc(F)cc1-c1cccc(-n2ncc(C(=O)O)c2C(F)(F)F)n1` [Example 15, 1-(6-(2-(4-(3-(4-cyano-1H-pyrazol-1-yl)propoxy)-2-methylphenethyl)-5-fluorophenyl)pyridin-2-yl)-5-(trifluoromethyl)-1H-pyrazole-4-carboxylic acid, sodium salt], 39.8 nM.
Same read-out and setting: next, `COc1cnn(CCCOc2ccc(CCc3ccc(F)cc3-c3cccc(-n4ncc(C(=O)O)c4C(F)(F)F)n3)c(C)c2)c1` [Example 16, 1-(6-(5-Fluoro-2-(4-(3-(4-methoxy-1H-pyrazol-1-yl)propoxy)-2-methylphenethyl)phenyl)pyridin-2-yl)-5-(trifluoromethyl)-1H-pyrazole-4-carboxylic acid, sodium salt]: 6.31 nM; `Cc1cc(OCCCn2cncn2)ccc1CCc1ccc(F)cc1-c1cccc(-n2ncc(C(=O)O)c2C(F)(F)F)n1` [Example 17, 1-(6-(2-(4-(3-(1H-1,2,4-triazol-1-yl)propoxy)-2-methylphenethyl)-5-fluorophenyl)pyridin-2-yl)-5-(trifluoromethyl)-1H-pyrazole-4-carboxylic acid, sodium salt]: 20 nM; `Cc1cc(OCCCn2ccc(C#N)n2)ccc1CCc1ccc(F)cc1-c1cccc(-n2ncc(C(=O)O)c2C(F)(F)F)n1` [Example 18, 1-(6-(2-(4-(3-(3-cyano-1H-pyrazol-1-yl)propoxy)-2-methylphenethyl)-5-fluorophenyl)pyridin-2-yl)-5-(trifluoromethyl)-1H-pyrazole-4-carboxylic acid, sodium salt]: 7.94 nM.
Same read-out and setting: to `CCOC(=O)c1cnn(-c2cccc(-c3ccccc3CCc3ccc(OCCCC(F)(F)F)cc3C)n2)c1C(F)(F)F` [Example 19, Ethyl 1-(6-(2-(2-methyl-4-(4,4,4-trifluorobutoxy)phenethyl)phenyl)pyridin-2-yl)-5-(trifluoromethyl)-1H-pyrazole-4-carboxylate] belongs 251 nM; to `Cc1cc(OCCCC(F)(F)F)ccc1CCc1ccccc1-c1cccc(-n2ncc(C(=O)O)c2C(F)(F)F)n1` [Example 21, 1-(6-(2-(2-methyl-4-(4,4,4-trifluorobutoxy)phenethyl)phenyl)pyridin-2-yl)-5-(trifluoromethyl)-1H-pyrazole-4-carboxylic acid, sodium salt], 7.94 nM; to `Cc1cc(OCCCC(F)(F)F)ccc1CCc1ccccc1-c1cccc(-n2ncc(C(=O)OC(C)C)c2C(F)(F)F)n1` [Example 22, Isopropyl 1-(6-(2-(2-methyl-4-(4,4,4-trifluorobutoxy)phenethyl)phenyl)pyridin-2-yl)-5-(trifluoromethyl)-1H-pyrazole-4-carboxylate], 1260 nM.
